{"source": "patent US20050220834A1", "about": "(priority 2004, published 2005)", "system": "bipolaris sorokininan", "test": "Seed treatment: disease prevention and yield keeping on wheat", "format": "in vivo", "settings": "treated seeds", "procedure": "Seeds treaed with FA whose weight amount to 0.2% seed by weight have disease prevention effect for bipolaris sorokininan and yield keeping effect. After the seeds were treated, the wheat developed well and occurrence of powdery mildew was less compared to blank. Yield keeping effect of mixture of FAn and triazolone was improved from 7.79% of single use of triazolone to 10.67%.", "data": [{"compound": "CC(C)(C)C(=O)C(Oc1ccc(Cl)cc1)n1cncn1", "note": "(stereo not shown) [triazolone]", "values": [{"measurement": "yield keeping effect (%)", "result": 7.79, "unit": "%"}]}]}
